According to patent US8003785B2 (Takeda Pharmaceutical Company Limited, priority 2008, dated 2011):
pIC50: −log10 of the molar value.

target: T1, PLK1 (Homo sapiens, UniProt P53350); experiment: Biochemical Characterization Assay: HTRF kinase assay, GST-PLK1 phosphorylation of GST-p53; conditions: GST-PLK1, GST-p53 substrate
T1 construct: Full-length, active GST-PLK1 is purified from Sf9 insect cells; made in house; host or cells: Sf9 insect cells
Procedure: Biochemical Characterization Assay
Full-length, active GST-PLK1 is purified from Sf9 insect cells, and full-length GST-p53 is purified from E. coli. Anti-phospho p53 antibody is from Cell Signaling Technology. Europium-conjugated anti-rabbit antibody is from PerkinElmer Life and Analytical Sciences. APC-conjugated anti-GST antibody is from Prozyme.
Six microliters of GST-PLK1 (3 ug/mL) in Kinase Assay Buffer are then added and the solution incubated at 37° C. for 35 minutes. Six microliters of solution containing 43 mM EDTA to stop the reaction and a 1:600 dilution of anti-phospho-p53 antibody in 20 mM HEPES pH 7, 50 mM NaCl, and 0.5 mg/mL BSA (Antibody Binding Buffer) are added and the solution incubated at 37° C. for 30 minutes. […] The HTRF signal is read on an Envision reader from PerkinElmer Life and Analytical Sciences.

T1 sequence (P53350 whole entry): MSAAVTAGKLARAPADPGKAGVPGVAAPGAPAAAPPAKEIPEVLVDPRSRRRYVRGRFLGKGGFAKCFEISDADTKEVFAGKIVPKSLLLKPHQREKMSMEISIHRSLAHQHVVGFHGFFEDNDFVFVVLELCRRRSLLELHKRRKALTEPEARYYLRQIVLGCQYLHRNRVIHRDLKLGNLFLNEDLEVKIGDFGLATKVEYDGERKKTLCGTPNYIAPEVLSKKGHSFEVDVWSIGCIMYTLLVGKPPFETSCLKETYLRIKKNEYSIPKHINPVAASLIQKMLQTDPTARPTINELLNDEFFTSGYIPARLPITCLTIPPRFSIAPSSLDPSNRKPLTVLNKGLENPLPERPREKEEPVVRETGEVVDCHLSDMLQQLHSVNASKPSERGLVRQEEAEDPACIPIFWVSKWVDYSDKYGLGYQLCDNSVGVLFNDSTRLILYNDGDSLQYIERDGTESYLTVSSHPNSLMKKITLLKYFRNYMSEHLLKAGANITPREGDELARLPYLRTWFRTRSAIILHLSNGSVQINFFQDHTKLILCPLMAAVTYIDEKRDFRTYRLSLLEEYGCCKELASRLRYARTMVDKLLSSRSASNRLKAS

Row | SMILES | pIC50
1 | CN1CCC(NC(=O)c2ccc(Nc3ncc4c(n3)N(C3CCCC3)CC(F)(F)C(=O)N4C)c(Cl)c2)CC1 [Example I-179, 3-chloro-4-(9-cyclopentyl-7,7-difluoro-5-methyl-6-oxo-6,7,8,9-tetrahydro-5H-pyrimido[4,5-b][1,4]diazepin-2-ylamino)-N-(1-methyl-piperidin-4-yl)-benzamide] | 7.30 to 9.00
2 | CCN1CCC(NC(=O)c2ccc(Nc3ncc4c(n3)N(C3CCCC3)CC(F)(F)C(=O)N4C)c(C(F)(F)F)c2)CC1 [Example I-206, 4-(9-cyclopentyl-7,7-difluoro-5-methyl-6-oxo-6,7,8,9-tetrahydro-5H-pyrimido[4,5-b][1,4]diazepin-2-ylamino)-N-(1-ethyl-piperidin-4-yl)-3-trifluoromethyl-benzamide] | 7.30 to 9.00
3 | COc1cc(C(N)=O)ccc1Nc1ncc2c(n1)N(CCc1ccccc1)CC(F)(F)C(=O)N2C [Example I-277, 4-(7,7-difluoro-5-methyl-6-oxo-9-phenethyl-6,7,8,9-tetrahydro-5H-pyrimido[4,5-b][1,4]diazepin-2-ylamino)-3-methoxy-benzamide] | 6.30 to 7.29
4 | CCOc1cc(C(=O)NC2CCN(C(=O)OC(C)(C)C)CC2)ccc1Nc1ncc2c(n1)N(C1CCCC1)CC(F)(F)C(=O)N2C [Example I-221, 4-[4-(9-cyclopentyl-7,7-difluoro-5-methyl-6-oxo-6,7,8,9-tetrahydro-5H-pyrimido[4,5-b][1,4]diazepin-2-ylamino)-3-ethoxy-benzoylamino]-piperidine-1-carboxylic acid tert-butyl ester] | 6.30 to 7.29
5 | CNC(=O)c1ccc(Nc2ncc3c(n2)N(CCc2cccs2)CC(F)(F)C(=O)N3C)c(OC)c1 [Example I-272, 4-[7,7-difluoro-5-methyl-6-oxo-9-(2-thiophen-2-yl-ethyl)-6,7,8,9-tetrahydro-5H-pyrimido[4,5-b][1,4]diazepin-2-ylamino]-3-methoxy-N-methyl-benzamide] | 7.30 to 9.00
6 | CCc1cc(C(N)=O)ccc1Nc1ncc2c(n1)N(C1CCCC1)CC(F)(F)C(=O)N2C [Example I-203] | 7.30 to 9.00
7 | COc1cc(C(=O)NC2CCN(C)CC2)ccc1Nc1ncc2c(n1)N(CCOc1ccccc1)CC(F)(F)C(=O)N2C [Example I-304, 4-[7,7-difluoro-5-methyl-6-oxo-9-(2-phenoxy-ethyl)-6,7,8,9-tetrahydro-5H-pyrimido[4,5-b][1,4]diazepin-2-ylamino]-3-methoxy-N-(1-methyl-piperidin-4-yl)-benzamide] | 6.30 to 7.29
8 | CNC(=O)c1ccc(Nc2ncc3c(n2)N(C2CCCC2)CC(F)(F)C(=O)N3C)c(F)c1F [Example I-245] | 7.30 to 9.00
9 | CNC(=O)c1cc(OC)c(Nc2ncc3c(n2)N(C2CCCC2)CC(F)(F)C(=O)N3C)cc1F [Example I-171, 4-(9-cyclopentyl-7,7-difluoro-5-methyl-6-oxo-6,7,8,9-tetrahydro-5H-pyrimido[4,5-b][1,4]diazepin-2-ylamino)-2-fluoro-5-methoxy-N-methyl-benzamide] | 7.30 to 9.00
10 | COc1cc(C(=O)NC2CCOCC2)ccc1Nc1ncc2c(n1)N(CCc1ccccc1)CC(F)(F)C(=O)N2C [Example I-280, 4-(7,7-difluoro-5-methyl-6-oxo-9-phenethyl-6,7,8,9-tetrahydro-5H-pyrimido[4,5-b][1,4]diazepin-2-ylamino)-3-methoxy-N-(tetrahydro-pyran-4-yl)-benzamide] | 6.30 to 7.29
11 | CNC(=O)c1ccc(Nc2ncc3c(n2)N(C2CCCCC2)CC(F)(F)C(=O)N3C)c(OC)c1 [Example I-249, 4-(9-cyclohexyl-7,7-difluoro-5-methyl-6-oxo-6,7,8,9-tetrahydro-5H-pyrimido[4,5-b][1,4]diazepin-2-ylamino)-3-methoxy-N-methyl-benzamide] | 7.30 to 9.00
12 | COc1cc(C(=O)O)ccc1Nc1ncc2c(n1)N(CCc1cccs1)CC(F)(F)C(=O)N2C [Example I-269, 4-[7,7-difluoro-5-methyl-6-oxo-9-(2-thiophen-2-yl-ethyl)-6,7,8,9-tetrahydro-5-pyrimido[4,5-b]diazepin-2-ylamino]-3-methoxy-benzoic acid] | 6.30 to 7.29
13 | CN(C)CCNC(=O)c1ccc(Nc2ncc3c(n2)N(C2CCCC2)CC(F)(F)C(=O)N3C)c(F)c1 [Example I-226, 4-(9-cyclopentyl-7,7-difluoro-5-methyl-6-oxo-6,7,8,9-tetrahydro-5H-pyrimido[4,5-b][1,4]diazepin-2-ylamino)-N-(2-dimethylamino-ethyl)-3-fluoro-benzamide] | 7.30 to 9.00

same assay, conditions: GST-PLK1, GST-p53 substrate, ATP

Row | SMILES | pIC50
14 | CCN1C(=O)C(F)(F)CN(C2CCCC2)c2nc(Nc3ccc(C(=O)NC)cc3OC)ncc21 [Example I-158, 4-(9-cyclopentyl-5-ethyl-7,7-difluoro-6-oxo-6,7,8,9-tetrahydro-5H-pyrimido[4,5-b][1,4]diazepin-2-ylamino)-3-methoxy-N-methyl-benzamide] | 5.30 to 6.30
15 | COc1cc(C(=O)NCCCN2CCCCC2C)ccc1Nc1ncc2c(n1)N(C1CCCC1)CC(F)(F)C(=O)N2C (centres unmarked) [Example I-110, 4-(9-cyclopentyl-7,7-difluoro-5-methyl-6-oxo-6,7,8,9-tetrahydro-5H-pyrimido[4,5-b][1,4]diazepin-2-ylamino)-3-methoxy-N-[3-(2-methyl-piperidin-1-yl)-propyl]-benzamide] | 7.30 to 9.00
16 | COc1cc(C(=O)NCCN2CCN(C)CC2)ccc1Nc1ncc2c(n1)N(C1CCCC1)CC(F)(F)C(=O)N2C [Example I-47, 4-(9-cyclopentyl-7,7-difluoro-5-methyl-6-oxo-6,7,8,9-tetrahydro-5H-pyrimido[4,5-b][1,4]diazepin-2-ylamino)-3-methoxy-N-[2-(4-methyl-piperazin-1-yl)-ethyl]-benzamide] | 7.30 to 9.00
17 | CCN1C(=O)C(F)(F)CN(C2CCCC2)c2nc(Nc3ccc(C(=O)NC4CCOCC4)cc3)ncc21 [Example I-143, 4-(9-cyclopentyl-5-ethyl-7,7-difluoro-6-oxo-6,7,8,9-tetrahydro-5H-pyrimido[4,5-b][1,4]diazepin-2-ylamino)-N-(tetrahydro-pyran-4-yl)-benzamide] | 5.30 to 6.30
18 | COc1cc(C(=O)NC2CCN(CCCS(C)(=O)=O)CC2)ccc1Nc1ncc2c(n1)N(C1CCCC1)CC(F)(F)C(=O)N2C [Example I-76, 4-(9-cyclopentyl-7,7-difluoro-5-methyl-6-oxo-6,7,8,9-tetrahydro-5H-pyrimido[4,5-b][1,4]diazepin-2-ylamino)-N-[1-(3-methanesulfonyl-propyl)-piperidin-4-yl]-3-methoxy-benzamide] | 7.30 to 9.00
19 | COc1cc(C(=O)NC2CCCCC2)ccc1Nc1ncc2c(n1)N(C1CCCC1)CC(F)(F)C(=O)N2C [Example I-27, N-cyclohexyl-4-(9-cyclopentyl-7,7-difluoro-5-methyl-6-oxo-6,7,8,9-tetrahydro-5H-pyrimido[4,5-b][1,4]diazepin-2-ylamino)-3-methoxy-benzamide] | 7.30 to 9.00
20 | COc1cc(C(=O)NC2CCN(Cc3ccccc3)CC2)ccc1Nc1ncc2c(n1)N(C1CCCC1)CC(F)(F)C(=O)N2C [Example I-122, N-(1-benzyl-piperidin-4-yl)-4-(9-cyclopentyl-7,7-difluoro-5-methyl-6-oxo-6,7,8,9-tetrahydro-5H-pyrimido[4,5-b][1,4]diazepin-2-ylamino)-3-methoxy-benzamide] | 7.30 to 9.00
